Source: patent US20240416143A1, “PHOTONIC ANTIMICROBIAL WOUND SURFACE DRESSING” (The General Hospital Corporation, priority 2021, published 2024)

Key:
[1] = Solubility of menadione in aqueous solution; type: physicochemical
Experimental: Thus, we dissolved the menadione in two conditions: in PBS containing either 1% DMSO or 1% DMSO/Tween80 at 400 μM. Tween 80 is a surfactant and the idea is to mix with the DMSO before to add to PBS is due to necessity to improve the solubility of menadione in aqueous solution. We measured the absorption spectrum in both conditions to analyze if there is any change in optical properties. The range of wavelength absorption of menadione was measured between 200-800 nm (see FIG. 12B) to choose the optimum wavelength of the light absorption spectra. […] The maximum wavelength of absorption found was 340 nm for both conditions. […] The molar absorptivity coefficient was compared in different wavelength according with the Table 1.

P. aeruginosa biofilm = assay: Photoinactivation of 48-hour in vitro biofilms by adjuvant/antibiotic + antimicrobial blue light; type: cell-based, Pseudomonas aeruginosa
Experimental: The bacterial suspension was grown in a shaking incubator overnight in BHI broth. Cells were collected by centrifugation at 4,000 rpm for 5 minutes and suspended in PBS at a density of 10^6 CFU/mL. Then, the biofilms were grown for 48 hours (unless otherwise specified) in 96-well microtiter plates as described previously [Ref. 27], with a renewal of the media every 24 hours. Following the 48-hour biofilm growth, fresh 200 μL of PBS with or without menadione in different concentrations were added to the wells and the biofilms were incubated in the dark at 25° C. for 1 hour: 0, 0.5, 1, and 2 μg/mL for MRSA USA300, AF0001, IQ0064; […]; and 0, 100, and 150 μg/mL for E. coli ATCC 25922. After that, the control and the menadione-treated biofilms were maintained without irradiation (“menadione/dark”). Simultaneously, the aBL was delivered to the other biofilm groups testing different power densities (50, 30, 15, and 10 mW/cm^2) while keeping the same radiant exposure of 250 J/cm^2. After the light exposure, the biofilms were carefully washed two times with PBS and 200 μL of PBS was added to each well. Then, the bacterial biofilms in each well were harvested by scratching with a sterile pipette tip and three wells of each group were pooled together in a 1.5 mL microcentrifuge tube. The total volume obtained, 600 μL (3 wells), was sonicated using a Branson 2510 Water Bath Sonicator (Marshall Scientific, LLC) for 5 minutes and the CFU was determined by 10-fold serial dilutions in PBS on BHI agar plates. CFU was counted after overnight incubation at 37° C. Experiments were performed in triplicate.
A bacterial suspension was grown in a shaking incubator overnight in BHI broth. Cells were collected by centrifugation at 4,000 rpm for 5 minutes and suspended in PBS at a density of 10^6 CFU/mL. Then, the biofilms were grown for 48 hours in 96-well microtiter plates with a renewal of the media every 24 hours. Following the 48-hour biofilm growth, fresh 200 μL of PBS with the tetracyclines minocycline, doxycycline, and demeclocycline in different concentrations were added to the wells and the biofilms were incubated in the dark at 25° C. for 1 hour: 0, 0.25, 0.5, and 1 μg/mL for minocycline; 0, 0.5, 1, and 2 μg/mL for doxycycline; and 0, 0.5, 1, and 2 for demeclocycline. After that, the control and the tetracycline-treated biofilms were maintained without irradiation (“menadione/dark”). […] The total volume obtained, 600 μL (3 wells), was sonicated using a Branson 2510 Water Bath Sonicator (Marshall Scientific, LLC) for 5 minutes and the CFU/mL was determined by 10-fold serial dilutions in PBS on BHI agar plates. CFU was counted after overnight incubation at 37° C.

[2] = test system: MRSA biofilms in ex-vivo porcine skin; assay: Photoinactivation of biofilms in ex vivo porcine partial thickness wounds by menadione + aBL; type: cell-based, methicillin-resistant Staphylococcus aureus
Experimental: Skin was handled and sanitized with 70% isopropanol solution after hair shaving. The explants and inner wounds were created using a 12 mm and 4 mm biopsy punches respectively. The explants were placed in 12 wells plates using a (8 μm pore) inserts (Corning™ Falcon™). 1 mL of DMEM media was added to each well in the plate before the insert. After 24 hours, the inner wounds in the explants were inoculated with 20 μL of 10^8 CFU/mL of bacterial solution. After that, the explants were incubated at 37° C. and 5% CO2 for 48 hours to ensure the growth of a mature bacterial biofilm. The inner wounds of the explants were replenished daily with fresh BHI media to ensure that the wounds are hydrated.
48 hours following the inoculation, mature monobacterial biofilms of MRSA, P. aeruginosa, and E. coli were obtained with 8.00 log10 CFU/g per wound bed on each explant. MRSA biofilms in explant were reduced by 0.81 log10 CFU/g after the treatment of just aBL 250 J/cm^2 (50 mW/cm^2). However, MRSA biofilms in ex-vivo porcine skin were reduced by up to 4.18 log10 CFU/g when treated with aBL combined with menadione (200 μg/mL). For MRSA biofilms, the log reduction of mature monobacterial biofilm increased as the menadione concentration increased (see FIGS. 16A-16B). […]

MRSA = assay: Hydroxyl radical assay (HPF) in bacteria; type: cell-based, methicillin-resistant Staphylococcus aureus; conditions: 10 μg/mL menadione, 135 J/cm^2
Experimental: 1.2.9.3 Hydroxyl radical HO′ assay: The hydroxyl radical was measured by 3′-(p-hydroxyphenyl) fluorescein (HPF) (Thermofisher). HPF is a new fluorescein derivative, and it is nonfluorescent until reacted with the hydroxyl radical or peroxynitrite anion. The MRSA were grown in BHI broth medium with shaking overnight. Cells were collected by centrifugation at 4,000 rpm for 5 minutes and resuspended in PBS in the stationary growth phase culture of 1×10^8 CFU/mL. The microbial suspension was transferred to a 35×12-mm dish, mixed with 10 μg/mL of menadione, and stained with 10 μM HPF solution per the manufacturer's instruction. The bacteria were irradiated with the blue light at 50 mW/cm^2 and the samples were collected each 15 minutes to be analyzed by Microplate Spectrofluorometer (SPECTRAmax®, Molecular Devices, USA) at λex=490 nm and λem=515 nm. The control and the menadione/dark groups were generated under the same conditions without irradiation.

CC1=CC(=O)c2ccccc2C1=O [menadione, 2-methyl-1,4-naphthoquinone]
solubility in aqueous solution ([1]; PBS with 1% DMSO/Tween80 vs 1% DMSO): best solubility
solubility in water ([1]; water): not soluble in water
biofilm reduction by menadione without irradiation (P. aeruginosa biofilm; 48 h biofilm, dark): < 1 log killing
biofilm eradicated by menadione plus aBL (P. aeruginosa biofilm; 48 h biofilm, 100 μg/mL menadione + aBL 250 J/cm^2 (50 mW/cm^2)): 6.6 log10 CFU/mL
potentiation of the effect of aBL by menadione (P. aeruginosa biofilm; 48 h in vitro biofilm, vs aBL alone): ~100 fold
biofilm reduction by menadione in the absence of aBL ([2]; ex vivo porcine explants, no aBL): no effect of biofilm reduction
biofilm reduction by aBL combined with menadione ([2]; ex vivo porcine wound, menadione 200 μg/mL + aBL 250 J/cm^2 (50 mW/cm^2)): up to 4.18 log10 CFU/g
hydroxyl radical (HPF), menadione+aBL vs aBL alone (MRSA): 1.77 times
